Data on eight compounds can be found in PMC11171218, “N-Benzylated 5-Hydroxybenzothiophene-2-carboxamides as Multi-Targeted Clk/Dyrk Inhibitors and Potential Anticancer Agents” (Cancers, 2024).

The target in series [1] is T1, Clk1 (Homo sapiens, UniProt P49759). The arrangement: method as in PMID 28561591, PMID 25221649. The conditions noted are these: Figure 1; ref [38],[45]; cited from earlier work.
The target of series [2] is T1, Clk1. Briefly: Z'-LYTE kinase inhibition assay, Clk1. It is filed as biochemical. The note with it: for IC50: ATP conc. equivalent to Km; for inhibition at 1 µM: read-out: Clk1 % Inh. At 1 µM. From the text: (§1) 3. Experimental procedure for protein kinases and inhibition assays.
(§2) 3.1 The Z ́ -LYTE biochemical assay for screening and IC 50 determination for Clk1, Dyrk1A, Dyrk1B, Clk2 and Clk3 kinases.
(§3) The assay employs a fluorescence-based, coupled-enzyme format and is based on the differential sensitivity of phosphorylated and non-phosphorylated peptides to proteolytic cleavage. The peptide substrate is labeled with two fluorophores-one at each end-that make up a FRET pair. In the primary reaction, the kinase transfers the gamma-phosphate of ATP to a single tyrosine, serine, or threonine residue in a synthetic FRET-peptide. In the secondary reaction, a site-specific protease recognizes and cleaves non-phosphorylated FRET-peptides. Phosphorylation of FRET-peptides suppresses cleavage by the Development Reagent. Cleavage disrupts FRET between the donor (i.e., coumarin) and acceptor (i.e., fluorescein) fluorophores on the FRET-peptide, whereas uncleaved, phosphorylated FRET-peptides maintain FRET. A ratiometric method, which calculates the ratio (the Emission Ratio) of donor emission to acceptor emission after excitation of the donor fluorophore at 400 nm, is used to quantitate reaction progress. Both cleaved and uncleaved FRET-peptides contribute to the fluorescence signals and therefore to the Emission Ratio. The extent of phosphorylation of the FRET-peptide can be calculated from the Emission Ratio. The Emission Ratio will remain low if the FRET-peptide is phosphorylated (i.e., no kinase inhibition) and will be high if the FRET-peptide is non-phosphorylated (i.e., kinase inhibition).
(§4) The IC 50 values were determined for compounds displaying significant % inhibition in the screening step. IC 50 determination was done through testing at a range of concentrations with two […]
two independent experiments.
3.1.1 Clk1 kinase assay specific conditions:
The 2x Clk1 / Ser/Thr 09 mixture is prepared in 50 mM HEPES pH 7.5, 0.01% BRIJ-35, 10 mM MgCl 2, 1 mM EGTA. The final 10 μL kinase reaction consists of 30 - 120 ng Clk1 and 2 μM Ser/Thr 09 in 50 mM HEPES pH 7.5, 0.01% BRIJ-35, 10 mM MgCl 2, 1 mM EGTA. After the 1 h

For the next series, the target named is Dyrk1B (Homo sapiens, UniProt Q9Y463). Briefly: Z'-LYTE kinase inhibition assay, Dyrk1B. The note with it: for inhibition at 1 µM: read-out: Dyrk1B % Inh. At 1 µM. The format is biochemical.
From the text: as §1, §2, §3, §4
(§5) two independent experiments. […]
3.1.3 Dyrk1B kinase assay specific conditions:
The 2X Dyrk1B / Ser/Thr 18 mixture is prepared in 50 mM HEPES pH 6.5, 0.01% BRIJ-35, 10 […]
mM MgCl2, 1 mM EGTA, 0.02% NaN3.
(§6) Development Reagent A is added. […]
(§7) MgCl2, 1 mM EGTA, 0.02% NaN3. […]

A further series has as its target Dyrk1A (Homo sapiens, UniProt Q13627). Briefly: Z'-LYTE kinase inhibition assay, Dyrk1A. The format is biochemical. The conditions noted are these: read-out: Dyrk1A % Inh. At 1 µM.
From the text: as §1, §2, §3, §4, §5
3.1.2 Dyrk1A kinase assay specific conditions:
The 2x Dyrk1A / Ser/Thr 18 mixture is prepared in 50 mM HEPES pH 7.5, 0.01% BRIJ-35, 10 […]
2 µM Ser/Thr 18 in 50 mM HEPES pH 7.5, 0.01% BRIJ-35, 10 mM MgCl 2, 1 mM EGTA. […]
as §6, §7

Structures are written as SMILES. Where two headings read alike, the source gives them in different places.

T1 sequence (P49759 whole entry): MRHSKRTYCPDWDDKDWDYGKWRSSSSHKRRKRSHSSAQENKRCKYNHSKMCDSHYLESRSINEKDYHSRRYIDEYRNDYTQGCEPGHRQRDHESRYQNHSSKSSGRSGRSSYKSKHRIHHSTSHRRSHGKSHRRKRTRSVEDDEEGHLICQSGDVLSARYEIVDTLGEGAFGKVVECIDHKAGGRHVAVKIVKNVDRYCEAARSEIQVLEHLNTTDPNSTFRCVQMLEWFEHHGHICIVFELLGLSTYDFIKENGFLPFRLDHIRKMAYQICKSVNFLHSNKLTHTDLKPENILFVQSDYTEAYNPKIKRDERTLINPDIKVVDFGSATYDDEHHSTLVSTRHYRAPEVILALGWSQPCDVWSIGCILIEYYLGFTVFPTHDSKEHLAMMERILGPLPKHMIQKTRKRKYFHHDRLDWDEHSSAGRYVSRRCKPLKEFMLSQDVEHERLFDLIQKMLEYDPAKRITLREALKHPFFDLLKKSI
Dyrk1B, sequence (Q9Y463 whole entry): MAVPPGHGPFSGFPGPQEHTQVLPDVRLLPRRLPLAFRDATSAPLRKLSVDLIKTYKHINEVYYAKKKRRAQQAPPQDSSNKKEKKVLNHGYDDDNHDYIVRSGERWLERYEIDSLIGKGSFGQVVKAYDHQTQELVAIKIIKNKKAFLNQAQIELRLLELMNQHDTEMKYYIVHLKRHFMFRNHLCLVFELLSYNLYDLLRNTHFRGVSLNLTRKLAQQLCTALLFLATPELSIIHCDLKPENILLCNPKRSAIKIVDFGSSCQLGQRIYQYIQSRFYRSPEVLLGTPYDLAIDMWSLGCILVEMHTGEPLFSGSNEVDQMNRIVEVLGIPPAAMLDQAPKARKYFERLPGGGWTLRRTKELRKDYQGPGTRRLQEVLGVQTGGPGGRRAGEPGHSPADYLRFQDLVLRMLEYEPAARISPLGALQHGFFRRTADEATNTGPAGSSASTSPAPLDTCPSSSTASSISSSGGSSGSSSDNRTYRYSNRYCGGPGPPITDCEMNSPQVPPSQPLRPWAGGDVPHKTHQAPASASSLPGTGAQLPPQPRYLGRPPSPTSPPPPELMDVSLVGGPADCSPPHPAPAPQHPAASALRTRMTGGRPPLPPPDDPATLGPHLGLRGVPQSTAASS

One may read the IC50 as the concentration that gives 50% inhibition. Regarding `Cc1ccc(C(=O)c2cc3cc(O)ccc3s2)cc1O` [Compound (ii)], the IC50 at Clk1 [1] is 60 nM.

For the compound `CC(=O)c1cc2cc(O)ccc2s1` [Compound (i)], the IC50 at Clk1 [1] was 50 nM.

A word on the melting point: it is the temperature of the solid-liquid transition. Compound `O=C(c1cc2cc(O)ccc2s1)N1Cc2ccc(Cl)cc2C1` [Compound 25, (5-Chloroisoindolin-2-yl)(5-hydroxybenzo[b]thiophen-2-yl)methanone] showed a melting point of 224.9 to 226 °C. In addition, on Clk1 [2], the IC50 was determined as 608 nM and the inhibition at 1 µM was 62%. In addition, at Dyrk1B, the inhibition at 1 µM was determined as 24%. Moreover, the inhibition at 1 µM on Dyrk1A was determined as 13%.

The compound `O=C(NCc1cccc(F)c1F)c1cc2cc(O)ccc2s1` [Compound 15, N-(2,3-Difluorobenzyl)-5-hydroxybenzo[b]thiophene-2-carboxamide] displayed a melting point of 199.7 to 201.9 °C. For the same compound, on Clk1 [2], the IC50 worked out at 779 nM and the inhibition at 1 µM stood at 61%. Also, the IC50 at Dyrk1B (ATP conc. equivalent to Km) was 645 nM. The inhibition at 1 µM at Dyrk1B worked out at 61%. Further, on Dyrk1A, the inhibition at 1 µM came to 53%.

On to `Cc1cccc(CNC(=O)c2cc3cc(O)ccc3s2)c1` [Compound 9, 5-Hydroxy-N-(3-methylbenzyl)benzo[b]thiophene-2-carboxamide], for which the melting point lay within 176.3 to 178.4 °C. In addition, on Clk1 [2], the half-maximal inhibitory concentration (IC50) stood at 787 nM and the inhibition at 1 µM came out at 61%. Besides, the inhibition at 1 µM on Dyrk1B turned out to be 40%. Moreover, the inhibition at 1 µM at Dyrk1A was 33%.

As to `O=C(NCCc1ccccc1)c1cc2cc(O)ccc2s1` [Compound 29, 5-Hydroxy-N-phenethylbenzo[b]thiophene-2-carboxamide], the melting point is 99.2 to 101.1 °C. Moreover, on Clk1 [2], the IC50 is 753 nM and the inhibition at 1 µM was determined as 61%. Also, the inhibition at 1 µM at Dyrk1B stood at 48%. In addition, the inhibition at 1 µM at Dyrk1A amounted to 29%.

`O=C(c1cc2cc(O)ccc2s1)N1CCc2ccccc2C1` [Compound 24, (3,4-Dihydroisoquinolin-2(1H)-yl)(5-hydroxybenzo[b]thiophen-2-yl)methanone] showed a melting point of 198.8 to 200.8 °C. The inhibition at 1 µM on Clk1 [2] stood at 33%. Besides, the inhibition at 1 µM on Dyrk1B was 21%. Further, the inhibition at 1 µM at Dyrk1A amounted to 12%.

As to `O=C(NCc1cc(Cl)cc(Cl)c1)c1cc2cc(O)ccc2s1` [Compound 14, N-(3,5-Dichlorobenzyl)-5-hydroxybenzo[b]thiophene-2-carboxamide], the melting point lay within 189.4 to 192.1 °C. At Clk1 [2], the IC50 is 744 nM and the inhibition at 1 µM was 61%. Further, the inhibition at 1 µM on Dyrk1B amounted to 12%. At Dyrk1A, the inhibition at 1 µM was 41%.
